Paper PMC6792352, “Limited Chemical Structural Diversity Found to Modulate Thyroid Hormone Receptor in the Tox21 Chemical Library” (Environmental Health Perspectives, 2019)
Where a name gives a salt, the structure may show the parent alone.

experiment: in vitro; conditions: rat, gh3-tre-luc cells, AC50 (uM) modified / 1000

Row | SMILES | CC50 at 24 h
1 | CC1=CC(C)C(C=O)CC1 (stereo not shown) [2,4-Dimethyl-3-cyclohexene-1-carboxaldehyde] | > 90 µM
2 | O=C1CC[C@@H](C(=O)O)N1 [Pidolic acid] | > 50 µM
3 | OC/C(Br)=C(\Br)CO [(2E)-2,3-Dibromo-2-butene-1,4-diol] | > 90 µM
4 | CCCCCCCCCCC1CO1 (stereo not shown) [1,2-Epoxydodecane] | > 90 µM
5 | CCCCC(CC)COC(=O)c1ccccc1 (stereo not shown) [2-Ethylhexyl benzoate] | > 90 µM
6 | C[C@@H](O)[C@H]1C(=O)N2C(C(=O)O)=C(S[C@@H]3CN[C@H](CNS(N)(=O)=O)C3)[C@H](C)[C@H]12 [Doripenem] | > 50 µM
7 | CCC=C1OC(=O)c2ccccc21 [3-Propylidenephthalide] | > 90 µM
8 | CCCCN(N=O)C(=N)N[N+](=O)[O-] [N-Butyl-N'-nitro-N-nitrosoguanidine] | 56.4 µM
9 | CC(C)C(=O)c1c(C(C)C)nn2ccccc12 [Ibudilast] | > 50 µM
10 | O=C(NCC(O)CO)c1c(I)c(C(=O)NCC(O)CO)c(I)c(N(CCO)C(=O)CO)c1I (stereo not shown) [Ioversol] | > 20 µM
11 | O=c1[nH]nc(-c2ccc([N+](=O)[O-])o2)o1 [5-(5-Nitro-2-furyl)-1,3,4-oxadiazole-2-ol] | 67.5 µM
12 | CCCCCCCCN [1-Octanamine] | > 90 µM
13 | Cc1cc2c(cc1S(N)(=O)=O)S(=O)(=O)CCC2 [Meticrane] | > 20 µM
14 | NC(=O)N[C@@H](CCC(=O)O)C(=O)O [N-Carbamyl-L-glutamic acid] | > 50 µM
15 | COC(=O)C(C)N(C(=O)c1ccco1)c1c(C)cccc1C (stereo not shown) [Furalaxyl] | > 90 µM
16 | CCCCCCCC#N [Octanenitrile] | > 90 µM
17 | COC(CC(C)CCCC(C)(C)O)OC (stereo not shown) [Hydroxycitronellal dimethyl acetal] | > 90 µM
18 | C=C[C@]1(C)C[C@@H](OC(=O)CO)[C@]2(C)[C@H](C)CC[C@]3(CCC(=O)[C@H]32)[C@@H](C)[C@@H]1O [Pleuromutilin] | > 50 µM
19 | CCC(C)(NC(=O)c1cc(Cl)c(C)c(Cl)c1)C(=O)CCl (stereo not shown) [Zoxamide] | 15 µM
20 | Cl/C=C\C[N+]12CN3CN(CN(C3)C1)C2 [Chloroallyl methenamine chloride] | > 90 µM
21 | CC(C)C[C@H]1C(=O)N2CCC[C@H]2[C@]2(O)O[C@](NC(=O)[C@@H]3C=C4c5cccc6[nH]c(Br)c(c56)C[C@H]4N(C)C3)(C(C)C)C(=O)N12 [Bromocriptine] | > 50 µM
22 | COS(=O)(=O)O [Sodium methyl sulfate] | > 90 µM
23 | C=C[Si](OCC)(OCC)OCC [Ethenyl(triethoxy)silane] | > 90 µM
24 | Clc1ccc(Cl)c(Cl)c1Cl [1,2,3,4-Tetrachlorobenzene] | > 90 µM
25 | NC(=O)N1c2ccccc2C=Cc2ccccc21 [Carbamazepine] | > 90 µM
26 | COc1cc(C)c(Cc2cnc(N)nc2N)cc1OC [Ormetoprim] | > 50 µM

Row | SMILES | CC50 at 24 h
27 | O=S(=O)(O)c1cccc2c(S(=O)(=O)O)cccc12 [1,5-Naphthalenedisulfonic acid, disodium salt hydrate] | > 90 µM
28 | CC(=O)OC[C@H]1O[C@@H](O[C@H]2[C@H](O)[C@@H](OC(=O)c3ccccc3C(=O)O)[C@H](O)O[C@@H]2COC(C)=O)[C@H](O)[C@@H](OC(=O)c2ccccc2C(=O)O)[C@@H]1O [Cellulose acetate phthalate] | > 50 µM
29 | CN1C[C@H](CNC(=O)OCc2ccccc2)C[C@@H]2c3cccc4c3c(cn4C)C[C@H]21 [Metergoline] | 8.07 µM
30 | CN(C)CCO [Dimethylaminoethanol] | > 90 µM
31 | Cc1onc(-c2ccccc2Cl)c1C(=O)N[C@@H]1C(=O)N2[C@@H]1SC(C)(C)[C@@H]2C(=O)O [Cloxacillin sodium] | > 20 µM
32 | CCCc1c2oc(C(=O)O)cc(=O)c2cc2c(=O)cc(C(=O)O)n(CC)c12 [Nedocromil] | > 50 µM
33 | CCCCCC[n+]1ccccc1 [1-Hexylpyridinium bromide] | > 90 µM
34 | NS(=O)(=O)c1ccc(NC(=O)CCC(=O)O)cc1 [Sulfasuccinamide] | > 50 µM
35 | CC(C)(C)NC[C@H](O)COc1ccccc1C1CCCC1 [Penbutolol sulfate] | 11.1 µM
36 | CCc1ccc2c(c1)N(CC(C)CN(C)C)c1ccccc1S2 (stereo not shown) [Etymemazine hydrochloride] | 9.18 µM
37 | CCC(C)c1cc([N+](=O)[O-])cc([N+](=O)[O-])c1OC(=O)C=C(C)C (stereo not shown) [Binapacryl] | 36.3 µM
38 | COc1cc2c(cc1OC)C(C(C(=O)N(CCc1ccc(OC)c(OC)c1OC)CCc1ccc(OC)c(OC)c1OC)c1ccccc1)=NCC2 (stereo not shown) [Pinokalant hydrochloride] | 21.9 µM
39 | COC(=O)OC [Dimethyl carbonate] | > 90 µM
40 | C#CCN1CC(=O)N(COC(=O)C2C(C=C(C)C)C2(C)C)C1=O (stereo not shown) [Imiprothrin] | > 50 µM
41 | C=C(C)C(=O)OCCOC1CC2CC1C1C=CCC21 (stereo not shown) [(Dicyclopentadienyloxy)ethyl methacrylate] | > 100 µM
42 | CN1C[C@@H](NS(=O)(=O)N(C)C)C[C@@H]2c3cccc4c3c(cn4C)C[C@H]21 [Mesulergine] | 22.3 µM
43 | CCOC(=O)c1cnc2c(cnn2CC)c1NN=C(C)C [Etazolate hydrochloride] | > 50 µM
44 | O=C(O)CCNC(=O)c1ccccc1 [Betamipron] | > 50 µM
45 | CNC(=O)c1ccccc1 [N-Methylbenzamide] | > 90 µM
46 | C/C=C/C1=C(C(=O)O)N2C(=O)[C@@H](NC(=O)[C@H](N)c3ccc(O)cc3)[C@H]2SC1 [Cefprozil monohydrate] | > 50 µM
47 | Nc1ccc2cc(S(=O)(=O)O)cc(O)c2c1 [6-Amino-4-hydroxynaphthalene-2-sulfonic acid] | > 90 µM
48 | C[C@@H]1CC(=O)NN=C1c1ccc(NN=C(C#N)C#N)cc1 [Levosimendan] | 14.8 µM
49 | CC1CCc2c(N3CCC(O)CC3)c(F)cc3c(=O)c(C(=O)O)cn1c23 (stereo not shown) [Nadifloxacin] | > 50 µM
50 | O=C1CSC2(CCN(CCCN3c4ccccc4Sc4ccc(Cl)cc43)CC2)N1 [Spiclomazine hydrochloride] | 6.81 µM
51 | COc1ccc2cc([C@H](C)CO)ccc2c1 [Naproxol] | > 50 µM
52 | Cc1ccc2cccnc2c1 [7-Methylquinoline] | > 90 µM

same assay, conditions: rat, gh3-tre-luc cells, AC50 (uM) modified / 1000, Tox21_110001=Tox21_111076; viability, 1 nM T3 present, 24 h

Row | SMILES | CC50 at 24 h
53 | Clc1ccc(C(c2ccc(Cl)cc2)C(Cl)(Cl)Cl)cc1 [p,p'-DDT] | 19.5 µM

same assay, conditions: rat, gh3-tre-luc cells, AC50 (uM) modified / 1000, Tox21_110001=Tox21_111521; viability, 1 nM T3 present, 24 h

Row | SMILES | CC50 at 24 h
54 | C[C@@H]([C@H](O)c1ccccc1)N(C)C [Methylephedrine] | > 50 µM

same assay, conditions: rat, gh3-tre-luc cells, AC50 (uM) modified / 1000, Tox21_110001=Tox21_112852; viability, 1 nM T3 present, 24 h

Row | SMILES | CC50 at 24 h
55 | CC(Cc1ccc2c(c1)OCO2)NO (stereo not shown) [1-(1,3-Benzodioxol-5-yl)-N-hydroxypropan-2-amine hydrochloride] | > 100 µM

same assay, conditions: rat, gh3-tre-luc cells, AC50 (uM) modified / 1000, Tox21_110001=Tox21_200284; viability, 1 nM T3 present, 24 h

Row | SMILES | CC50 at 24 h
56 | ClCCOCOCCCl [Bis(2-chloroethoxy)methane] | > 100 µM

same assay, conditions: rat, gh3-tre-luc cells, AC50 (uM) modified / 1000, Tox21_110001=Tox21_201495; viability, 1 nM T3 present, 24 h

Row | SMILES | CC50 at 24 h
57 | Clc1ccc(C(c2ccc(Cl)cc2)C(Cl)(Cl)Cl)cc1 [p,p'-DDT] | 44.8 µM

same assay, conditions: rat, gh3-tre-luc cells, AC50 (uM) modified / 1000, Tox21_110001=Tox21_201498; viability, 1 nM T3 present, 24 h

Row | SMILES | CC50 at 24 h
58 | COc1ccc(N)cc1 [4-Methoxyaniline hydrochloride] | > 90 µM

same assay, conditions: rat, gh3-tre-luc cells, AC50 (uM) modified / 1000, Tox21_110001=Tox21_201813; viability, 1 nM T3 present, 24 h

Row | SMILES | CC50 at 24 h
59 | CN(C)c1ccccc1 [N,N-Dimethylaniline] | > 90 µM

same assay, conditions: rat, gh3-tre-luc cells, AC50 (uM) modified / 1000, Tox21_110001=Tox21_203002; viability, 1 nM T3 present, 24 h

Row | SMILES | CC50 at 24 h
60 | NC(=S)Nc1cccc2ccccc12 [1-(1-Naphthyl)-2-thiourea] | > 5 µM

same assay, conditions: rat, gh3-tre-luc cells, AC50 (uM) modified / 1000, Tox21_110001=Tox21_300036; viability, 1 nM T3 present, 24 h

Row | SMILES | CC50 at 24 h
61 | CN(C)c1ccccc1 [N,N-Dimethylaniline] | > 100 µM

same assay, conditions: rat, gh3-tre-luc cells, AC50 (uM) modified / 1000, Tox21_110001=Tox21_300067; viability, 1 nM T3 present, 24 h

Row | SMILES | CC50 at 24 h
62 | Clc1ccc(C(c2ccc(Cl)cc2)C(Cl)(Cl)Cl)cc1 [p,p'-DDT] | 28.7 µM

same assay, conditions: rat, gh3-tre-luc cells, AC50 (uM) modified / 1000, Tox21_110001=Tox21_302560; viability, 1 nM T3 present, 24 h

Row | SMILES | CC50 at 24 h
63 | Nc1ccccc1C(=O)Oc1ccc2ccccc2c1 [Naphthalen-2-yl 2-aminobenzoate] | > 90 µM

same assay, conditions: rat, gh3-tre-luc cells, AC50 (uM) modified / 1000, Tox21_110001=Tox21_400042; viability, 1 nM T3 present, 24 h

Row | SMILES | CC50 at 24 h
64 | OCCCBr [3-Bromo-1-propanol] | > 90 µM
